# Where two headings read alike, the source gives them in different places.
# Legend:
# [1] = tested on: K562 cells; parameters: key: Positive: Simvastatin alone inhibited the progression of cancer; Negative: Simvastatin alone could not inhibit the progression of cancer; conditions: Chronic Myelogenous Leukemia, i.p., cited from earlier work
# [2] = tested on: 10A cells; experiment: MTT cell viability assay, 10A; format: cell-based; conditions: Homo sapiens, normal cell line, 72 h
# Procedure: (§1) Statins dissolved in DMSO and AA dissolved in ethanol. After 72 h treatment, the medium was added 0.5 mg/ml MTT reagent and incubated at 37°C for 4 h. Subsequently, the supernatant was aspirated, and cells were lysed in 150 µl DMSO, then shaken 10 min at 37°C. The optical density (OD) was measured at 570 and 630 nm using a plate reader.
# [3] = tested on: HLMC cells from the primary patients; parameters: method as in Supplement [4]; key: Positive: Simvastatin alone inhibited the progression of cancer; Negative: Simvastatin alone could not inhibit the progression of cancer; conditions: Lung Carcinoma, 50.0 mg/kg/day, oral; ref Supplement [4]; cited from earlier work
# [4] = tested on: A498 cells; parameters: method as in Supplement [14]; key: Positive: Simvastatin alone inhibited the progression of cancer; Negative: Simvastatin alone could not inhibit the progression of cancer; conditions: Renal Cancer, 5.0 mg/kg/day, oral; ref Supplement [14]; cited from earlier work
# [5] = tested on: 22RV1 cells; parameters: key to Results (simvastatin alone): Positive: Simvastatin alone inhibited the progression of cancer; Negative: Simvastatin alone could not inhibit the progression of cancer; conditions: Prostate Cancer, 25.0 mg/kg/day, i.p.; ref Supplement [15]; cited from earlier work
# [6] = tested on: LAPC-4 cells; parameters: method as in Supplement [16]; key: Positive: Simvastatin alone inhibited the progression of cancer; Negative: Simvastatin alone could not inhibit the progression of cancer; conditions: Prostate Cancer, 11.0 mg/kg/day, s.c.; ref Supplement [16]; cited from earlier work
# [7] = tested on: KHOS or NP cells; parameters: method as in Supplement [24]; key: Positive: Simvastatin alone inhibited the progression of cancer; Negative: Simvastatin alone could not inhibit the progression of cancer; conditions: Osteosarcoma, 10.0 mg/kg, route unknown; ref Supplement [24]; cited from earlier work
# [8] = tested on: TSC2-null cells from the primary tumors; parameters: method as in Supplement [3]; key: Positive: Simvastatin alone inhibited the progression of cancer; Negative: Simvastatin alone could not inhibit the progression of cancer; conditions: Pulmonary Lymphangioleiomyomatosis, 100.0 mg/kg/day, oral; ref Supplement [3]; cited from earlier work
# [9] = tested on: N2a cells; experiment: Wound healing assay, N2a; format: cell-based, mouse; conditions: 1.5 μM simvastatin, 48 h
# Procedure: N2a, SH-SY5Y, and SK-N-BE (2) cells were cultured in six-well plates (5 × 10^5cells/well) and incubated till they reached 90–100% confluence. The cells were then maintained in phenol red-free DMEM/DMEM-F12 with 2.5%FBS, in order to minimize the cell proliferation. A sterile 20 µl tip was used to create scratch wounds of the same width. The plates were then washed twice with phosphate-buffered saline (PBS) to remove the detached cells. Photos were taken at 0, 24, and 48 h, and the area covered by the cells enumerated the closure of the wounds. Each experiment was performed in triplicate.
# [10] = tested on: HL7702 cells; experiment: MTT cell viability assay, HL7702; format: cell-based; conditions: Homo sapiens, L02, normal cell line, 72 h
# Procedure: as §1
# [11] = tested on: HUVEC cells; experiment: MTT cell viability assay, HUVEC; format: cell-based; conditions: Homo sapiens, normal cell line, 72 h
# Procedure: as §1
# [12] = tested on: GL-26 cells; parameters: method as in Supplement [2]; key: Positive: Simvastatin alone inhibited the progression of cancer; Negative: Simvastatin alone could not inhibit the progression of cancer; conditions: Human glioblastoma multiforme, 1.0 mg/kg/day or 10.0 mg/kg/day, oral; ref Supplement [2]; cited from earlier work
# [13] = tested on: HCT116 p53 +/+ or p53 -/- cells; parameters: method as in Supplement [12]; key: Positive: Simvastatin alone inhibited the progression of cancer; Negative: Simvastatin alone could not inhibit the progression of cancer; conditions: Colorectal Cancer, 20.0 mg/kg/day, i.p.; ref Supplement [12]; cited from earlier work
structure (smiles),measurement,setting,value
CCC(C)(C)C(=O)O[C@H]1C[C@@H](C)C=C2C=C[C@H](C)[C@H](CC[C@@H]3C[C@@H](O)CC(=O)O3)[C@H]21 [Simvastatin],Results (simvastatin alone),"[1]; 1.3 mg/kg/day or 2.0 mg/kg/day, ref Supplement [26]",Positive
same,Results (simvastatin alone),"[1]; 7.1 mg/kg/day or 14.3 mg/kg/day, ref Supplement [27]",Positive
same,IC50,[2],26.7 µM
same,Results (simvastatin alone),[3],Positive
same,Results (simvastatin alone),[4],Positive
same,Results (simvastatin alone),[5],Positive
same,Results (simvastatin alone),[6],Negative
same,Results (simvastatin alone),[7],Positive
same,Results (simvastatin alone),[8],Positive
same,migration vs control group,[9],significantly higher
same,IC50,[10],20.6 µM
same,IC50,[11],14.6 µM
same,Results (simvastatin alone),[12],Negative
same,Results (simvastatin alone),[13],Positive

# — publication PMC8141582, “Synergistic Effect of Statins and Abiraterone Acetate on the Growth Inhibition of Neuroblastoma via Targeting Androgen Receptor” (Frontiers in Oncology, 2021)
